Test system: human normal liver cell line L-02
Test: Cytotoxicity test on human normal liver cell line L-02 (Alamar Blue)
Assay type: cell-based
Details: L02, L-02 cells, 120 h incubation, cell viability, read-out: half inhibitory concentration (IC50) against L-02
Method: 2.1 The normal liver cell lines L-02 and WRL-68 were cultured with DMEM culture medium (containing 10% of fetal bovine serum, 100 U/mL of penicillin and 0.1 mg/mL of streptomycin) in an incubator under 5% CO2 at 37° C. until the cell density was about 90%, respectively.
2.3 Tested compounds and benzbromarone at different concentration gradients were prepared by using the DMEM culture medium and added into wells at 100 μL/well as compounds wells. The DMEM culture medium was added into wells at 100 μL/well without tested compound as negative control wells.
This 10× Alamar Blue solution was diluted into 1× Alamar Blue solution with phenol red free DMEM culture medium before use.
2.5 The cells were washed with PBS (0.1 M, pH=7.4) twice. The Alamar Blue solution was added into wells at 100 μL/well. 100 μL of Alamar Blue solution was added into wells without cells to serve as blank control wells. The 96-well plate was placed in an incubator under 5% CO2 at 37° C. for 3 h. Each concentration of compound was repeated three times during the test.
The fluorescence value of the cells containing compound is the F(test compound); the fluorescence value of the cells without compound as blank control is the F(blank control); the fluorescent value of the cells from negative control group is F(negative control). The average value and standard deviation of cell viability of three repeated concentrations was calculated by the following formula: […]
2.7 The half inhibitory concentration (IC50) of the compound for the cells L-02 and WRL-68 was obtained from the cell viability by Prism Graph software.

## CCc1nc2ccccn2c1C(=O)c1cc(Br)c(O)c(C#N)c1 [Compound 74, 3-bromo-5-(2-ethylimidazo[1,2-a]pyridine-3-carbonyl)-2-hydroxybenzonitrile hydrogen chloride]
  IC50: > 100 µM

Reference: patent publication US10399971B2, “Compound for treating or preventing hyperuricemia or gout” (JIANGSU ATOM BIOSCIENCE AND PHARMACEUTICAL CO., LTD., priority 2015, dated 2019)
